Patent US20170007625A1, “NOVEL FORMULATIONS TO INHIBIT CYCLOOXYGENASE AND PRO-INFLAMMATORY CYTOKINE MEDIATED DISEASES” (Bioved Pharmaceuticals, Inc., priority 2008, published 2017)

Assays:
[1] = system: Adjuvant Arthritis (CFA induced); experiment: Adjuvant induced arthritis in rats; type: in vivo
Protocol: Arthritis or inflammation in the joint was induced by injection of Complete Freund's Adjuvant (CFA) into the left hind footpad of rats (animals). The animals were divided into three groups namely, Control, Ibuprofen and Formulation B. The role of Formulation B on specific cytokine blockade in the etiology of cachexia caused by Adjuvant Arthritis (AA) was evaluated. The parameter considered for the evaluation included paw thickness as a percent of paw thickness at Day 0 and percent body weight gain in animals. FIG. 4 illustrates paw thickness in animals as a percent of the paw thickness at Day 0 during the Adjuvant Induced Arthritis study in animals. Whereas, FIG. 5 illustrates percent body weight gain in animals during the Adjuvant Induced Arthritis study in animals.

DSS induced colitis = experiment: Dextran Sodium Sulfate (DSS) induced colitis; type: in vivo; settings: oral DSS in mice
Source text: Inflammation was induced in mice (animal) using oral administration of DSS.

Row | Compound | effect on cytokine inhibition ([1]; CFA into left hind footpad) | percent body weight gain (AA-associated weight loss) ([1]; compared to control animals, FIG. 5) | reduction in food intake (DSS induced colitis) | body weight loss (DSS induced colitis; FIG. 13)
1 | CC(C)Cc1ccc(C(C)C(=O)O)cc1 (stereo not shown) [Ibuprofen] | did not show any effect | lost body weight significantly |  | 
2 | O=C(O)c1cc(/N=N/c2ccc(S(=O)(=O)Nc3ccccn3)cc2)ccc1O [Sulfasalazine] |  |  | recovered | improved the body weight loss
